Laboratory results published in patent US20220118036A1, “USE OF MORCHELLA ACTIVE SUBSTANCE” (GRAPE KING BIO LTD., priority 2020, published 2022).
Values joined by “and” are separate entries in the source; they are usually repeats but may differ in a detail not shown here. Equal entries are not always repeated.

System: mouse skeletal muscle cells C2C12
Test: Dexamethasone-induced muscle atrophy of differentiated C2C12 myotubes (myotube width, H&E staining)
Format: cell-based
Conditions: 1 μM Dexamethasone alone, 24 hours, mean±SD, n = 60, control 30.39 ± 4.52
Experimental: Currently, there have been experiments using Dexamethasone to induce muscle atrophy in mouse skeletal muscle cell C2C12. […] This paper uses a synthetic glucocorticoid-Dexamethasone to induce differentiated C2C12 atrophy as a model of muscle atrophy for sarcopenia study, in which the severity of muscle atrophy is measured according to the observation of morphology and diameter of the myotubes. According to such a method, in this experiment, the differentiated mouse skeletal muscle cell C2C12 is stained with H&E (hematoxylin and eosin) to assess the effect of the Morchella mycelium active substance in muscle atrophy. The experimental method is as follows:
(1) After the mouse skeletal muscle cells C2C12 was collected and the cell suspension concentration was adjusted, the cells were plated in a 6-well plate at a cell density of 1×10^5-2×10^5 with the cell growth medium (DMEM, 10% Fetal Bovine Serum).
(2) The 6-well plate of (1) was placed in a 5% CO2 incubator at 37° C. for two days and then observed under a microscope. […]
(5) Each test was repeated 3 times, and the numerical value was expressed as mean±SD (standard deviation). The statistical method used paired t-test to analyze the percentages of each item, and the significant difference was determined when the p-value was less than 0.05.

For `C[C@@H]1C[C@H]2[C@@H]3CCC4=CC(=O)C=C[C@]4(C)[C@@]3(F)[C@@H](O)C[C@]2(C)[C@@]1(O)C(=O)CO` [Dexamethasone], the myotube diameter was 19.98 μm and 19.98 ± 6.42 μm.
